Source: patent US7176204B2, “Substituted carboxylic acid derivatives” (Kyorin Pahrmaceutical Co., Ltd., priority 2000, dated 2007)
Values belong to the molecule of their own block, whether it stands above or below them.

Experiments:
[1] = molecular target: T1, human type PPARγ ligand-binding domain fused with DNA-binding domain of yeast transcription factor (Homo sapiens, UniProt P37231); test: Test of transactivation on PPAR (luciferase reporter, CHO cells), PPARγ; assay type: cell-based; settings: luciferase activity after 24 hours, corrected with Renilla internal standard
T1 construct: expressed in transfected cells; host or cells: CHO cells
T1 sequence (P37231 238-503 limits assumed): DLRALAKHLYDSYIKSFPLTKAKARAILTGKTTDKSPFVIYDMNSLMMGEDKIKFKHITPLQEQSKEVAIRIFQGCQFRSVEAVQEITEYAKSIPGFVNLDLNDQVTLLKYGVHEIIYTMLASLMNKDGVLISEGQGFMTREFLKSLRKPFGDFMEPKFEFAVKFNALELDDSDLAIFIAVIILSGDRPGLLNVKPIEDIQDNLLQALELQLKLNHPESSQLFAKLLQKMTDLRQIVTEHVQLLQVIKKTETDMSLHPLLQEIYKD
Text: (§1) <Test of Transactivation on Peroxisome Proliferator-Activated Receptor (PPAR)
(§2) To CHO cells cultured in a Dulbecco-modified Eagle's medium containing 10% delipidated fetal calf serum (FCS/DMEM), receptor plasmid and its reporter plasmid (STRATAGENE Corp.) that manifest fused protein of DNA-binding domain being transcription factor of yeast with each ligand-binding domain of human type PPAR (Biochemistry, 1993, 32, 5598), and luciferase plasmid of Renilla (PROMEGA Corp.) for internal standard were cotransfected with lipofectamine in the serum-free state. Thereafter, testing compound was added to the 10% SFCS/DMEM and both luciferase activities were measured after 24 hours, which were corrected with internal standard.

[2] = molecular target: T2, human type PPARα ligand-binding domain fused with DNA-binding domain of yeast transcription factor (Homo sapiens, UniProt Q07869); test: Test of transactivation on PPAR (luciferase reporter, CHO cells), PPARα; assay type: cell-based; settings: luciferase activity after 24 hours, corrected with Renilla internal standard
T2 construct: expressed in transfected cells; host or cells: CHO cells
T2 sequence (Q07869 239-466 limits assumed): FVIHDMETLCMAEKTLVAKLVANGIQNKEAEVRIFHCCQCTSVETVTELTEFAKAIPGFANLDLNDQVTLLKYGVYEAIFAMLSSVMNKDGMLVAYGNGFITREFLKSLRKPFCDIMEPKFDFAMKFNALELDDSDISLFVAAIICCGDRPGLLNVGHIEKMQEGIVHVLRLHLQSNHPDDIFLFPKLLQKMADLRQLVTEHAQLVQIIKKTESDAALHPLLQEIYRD
Text: as §1, §2

[3] = molecular target: T3, human type PPARδ ligand-binding domain fused with DNA-binding domain of yeast transcription factor (Homo sapiens, UniProt Q03181); test: Test of transactivation on PPAR (luciferase reporter, CHO cells), PPARδ; assay type: cell-based; settings: luciferase activity after 24 hours, corrected with Renilla internal standard
T3 construct: expressed in transfected cells; host or cells: CHO cells
T3 sequence (Q03181 211-439 limits assumed): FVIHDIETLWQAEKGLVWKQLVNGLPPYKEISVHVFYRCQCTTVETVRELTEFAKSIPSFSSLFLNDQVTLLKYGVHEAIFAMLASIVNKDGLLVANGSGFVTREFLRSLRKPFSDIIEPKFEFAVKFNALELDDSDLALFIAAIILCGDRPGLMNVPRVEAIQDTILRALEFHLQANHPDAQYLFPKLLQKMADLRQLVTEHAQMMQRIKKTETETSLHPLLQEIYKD
Text: as §1, §2

Compound: CCC(Cc1ccc(OC)c(C(=O)NCc2ccc(Oc3ccccn3)cc2)c1)C(=O)O (centres unmarked) [Example 18]
EC50 [1]: 9600 nM
melting point: 138 to 139 °C
EC50 [2]: 140 nM
EC50 [3]: > 100000 nM

Compound: COc1ccc(CCC(=O)O)cc1C(=O)NCc1cccnc1 [Example 16, 3-[3-[N-(3-Pyridylmethyl)carbamoyl]-4-methoxyphenyl]propionic acid]
melting point: 175 to 176 °C

Compound: CCC(Cc1ccc(OC)c(CNC(=O)c2ccc(Oc3cccnc3)cc2)c1)C(=O)O (centres unmarked) [Example 23]
EC50 [1]: 5400 nM
EC50 [2]: 340 nM
EC50 [3]: 2200 nM

Other lines, results leading:

EC50 [1]: 550 nM
EC50 [2]: 60 nM
EC50 [3]: 210 nM
Compound: CCOc1ccc(CC(CC)C(=O)O)cc1CNC(=O)c1ccc(Oc2ccccn2)cc1 (single isomer, unassigned; (+)) [Example 27, (+)-2-[[4-Ethoxy-3-[[[4-(2-pyridyloxy)phenyl]carbonylamino]-methyl]phenyl]methyl]butyric acid]

EC50 [1]: 580 nM
EC50 [2]: 190 nM
EC50 [3]: 1100 nM
Compound: CCOc1ccc(CC(CC)C(=O)O)cc1CNC(=O)c1ccc(Oc2ccccn2)cc1 (single isomer, unassigned; (-)) [Example 28, (−)-2-[[4-Ethoxy-3-[[[4-(2-pyridyloxy)phenyl]carbonylamino]methyl]phenyl]methyl]butyric acid]

EC50 [1]: 410 nM
EC50 [2]: 44 nM
EC50 [3]: 190 nM
Compound: CCOc1ccc(CC(CC)C(=O)O)cc1CNC(=O)c1ccc(Oc2ccccn2)cc1 (racemic) [Example 26, 2-[[4-Ethoxy-3-[[[4-(2-pyridyloxy)phenyl]carbonylamino]-methyl]phenyl]methyl]butyric acid]
